From ChEMBL document CHEMBL3774317, “Design and synthesis of novel tamoxifen analogues that avoid CYP2D6 metabolism” (Eur J Med Chem, 2016)

Tests used:
Type in all cases: functional
[1] = Cytotoxicity against human SF268 cells assessed as growth inhibition after 48 hrs by SRB assay; settings: SF-268, 48 h
SK-MEL-5 = test: Cytotoxicity against human SK-MEL-5 cells assessed as growth inhibition after 48 hrs by SRB assay; settings: SK-MEL-5, 48 h; for CC50: read-out: LC50 (the source's name)
A549 = test: Cytotoxicity against human A549 cells assessed as growth inhibition after 48 hrs by SRB assay; settings: A549, 48 h
MDA-MB-231 = test: Cytotoxicity against human MDA-MB-231 cells assessed as growth inhibition after 48 hrs by SRB assay; settings: MDA-MB-231, 48 h
[2] = Cytotoxicity against human SKOV3 cells assessed as growth inhibition after 48 hrs by SRB assay; settings: SK-OV-3, 48 h; for CC50: read-out: LC50 (the source's name)
MDA-MB-435 = test: Cytotoxicity against human MDA-MB-435 cells assessed as growth inhibition after 48 hrs by SRB assay; settings: MDA-MB-435, 48 h; for CC50: read-out: LC50 (the source's name)
[3] = Cytotoxicity against human PC3 cells assessed as growth inhibition after 48 hrs by SRB assay; settings: PC-3, 48 h
T47D = test: Cytotoxicity against human T47D cells assessed as growth inhibition after 48 hrs by SRB assay
[4] = Cytotoxicity against human BT549 cells assessed as growth inhibition after 48 hrs by SRB assay; settings: BT-549, 48 h; for CC50: read-out: LC50 (the source's name)
[5] = Cytotoxicity against human HCT15 cells assessed as growth inhibition after 48 hrs by SRB assay; settings: HCT-15, 48 h
[6] = Cytotoxicity against human SF295 cells assessed as growth inhibition after 48 hrs by SRB assay; settings: SF-295, 48 h
ACHN = test: Cytotoxicity against human ACHN cells assessed as growth inhibition after 48 hrs by SRB assay
[7] = Cytotoxicity against human COLO205 cells assessed as growth inhibition after 48 hrs by SRB assay; settings: COLO 205, 48 h; for CC50: read-out: LC50 (the source's name)
CCRF-CEM = test: Cytotoxicity against human CCRF-CEM cells assessed as growth inhibition after 48 hrs by SRB assay; settings: for CC50: read-out: LC50 (the source's name)
[8] = Cytotoxicity against human MOLT4 cells assessed as growth inhibition after 48 hrs by SRB assay; settings: MOLT-4, 48 h
[9] = Cytotoxicity against human TK10 cells assessed as growth inhibition after 48 hrs by SRB assay; settings: TK-10, 48 h
[10] = Cytotoxicity against human HCC2998 cells assessed as growth inhibition after 48 hrs by SRB assay; settings: HCC 2998, 48 h; for CC50: read-out: LC50 (the source's name)
[11] = Cytotoxicity against human HL-60(TB) cells assessed as growth inhibition after 48 hrs by SRB assay; settings: HL-60, 48 h; for CC50: read-out: LC50 (the source's name)
[12] = Cytotoxicity against human Hs 578T cells assessed as growth inhibition after 48 hrs by SRB assay; settings: for CC50: read-out: LC50 (the source's name)
NCI-H23 = test: Cytotoxicity against human NCI-H23 cells assessed as growth inhibition after 48 hrs by SRB assay; settings: NCI-H23, 48 h; for CC50: read-out: LC50 (the source's name)
SR = test: Cytotoxicity against human SR cells assessed as growth inhibition after 48 hrs by SRB assay; settings: for CC50: read-out: LC50 (the source's name)
M14 = test: Cytotoxicity against human M14 cells assessed as growth inhibition after 48 hrs by SRB assay; settings: M14, 48 h; for CC50: read-out: LC50 (the source's name)
[13] = Cytotoxicity against human HOP92 cells assessed as growth inhibition after 48 hrs by SRB assay; settings: HOP-92, 48 h; for CC50: read-out: LC50 (the source's name)
U-251 = test: Cytotoxicity against human U251 cells assessed as growth inhibition after 48 hrs by SRB assay; settings: U-251, 48 h
NCI-H322M = test: Cytotoxicity against human NCI-H322M cells assessed as growth inhibition after 48 hrs by SRB assay; settings: for CC50: read-out: LC50 (the source's name)
[14] = Cytotoxicity against human OVCAR4 cells assessed as growth inhibition after 48 hrs by SRB assay; settings: OVCAR-4, 48 h
[15] = Cytotoxicity against human OVCAR3 cells assessed as growth inhibition after 48 hrs by SRB assay; settings: OVCAR-3, 48 h
MCF7 = test: Cytotoxicity against human MCF7 cells assessed as growth inhibition after 48 hrs by SRB assay; settings: MCF7, 48 h; for CC50: read-out: LC50 (the source's name)
[16] = Cytotoxicity against human RPMI8226 cells assessed as growth inhibition after 48 hrs by SRB assay; settings: RPMI-8226, 48 h
[17] = Cytotoxicity against human UO31 cells assessed as growth inhibition after 48 hrs by SRB assay; settings: UO-31, 48 h; for CC50: read-out: LC50 (the source's name)
[18] = Cytotoxicity against human OVCAR5 cells assessed as growth inhibition after 48 hrs by SRB assay; settings: OVCAR-5, 48 h
NCI-H226 = test: Cytotoxicity against human NCI-H226 cells assessed as growth inhibition after 48 hrs by SRB assay; settings: NCI-H226, 48 h

## C/C(=C(/c1ccc(O)cc1)c1ccc(OCCN2CCCC2)cc1)c1ccccc1
[1]
  GI50: 5.58 µM
  LC50: 55.2 µM
  TGI: 20.7 µM
SK-MEL-5
  GI50: 1.72 µM
  TGI: 3.1 µM
  CC50: 5.59 µM
A549
  GI50: 3.53 µM
  LC50: 35 µM
  TGI: 11 µM
MDA-MB-231
  GI50: 3510 nM
  LC50: 45.7 µM
  TGI: 8.4 µM
[2]
  GI50: 3.25 µM
  TGI: 13 µM
  CC50: 36.9 µM
MDA-MB-435
  GI50: 1.88 µM
  TGI: 4.4 µM
  CC50: 10.8 µM
[3]
  GI50: 4.28 µM
  LC50: 40.1 µM
  TGI: 14.7 µM
T47D
  GI50: 716 nM
  LC50: 53.7 µM
  TGI: 7.93 µM
[4]
  GI50: 4.2 µM
  TGI: 15.7 µM
  CC50: 39.6 µM
[5]
  GI50: 1.81 µM
  LC50 (concentration killing 50% of cells): 14.4 µM
  TGI: 4.64 µM
[6]
  GI50: 1.95 µM
  LC50 (concentration killing 50% of cells): 8.99 µM
  TGI: 4.19 µM
ACHN
  GI50: 4.28 µM
  LC50 (concentration causing 50% net cell kill): 44.1 µM
  TGI: 16.3 µM
[7]
  GI50: 1700 nM
  TGI: 3.38 µM
  CC50: 6.73 µM
CCRF-CEM
  GI50: 3.2 µM
  TGI: 9.85 µM
  CC50: 50 µM
[8]
  GI50: 2.94 µM
  LC50: 67.2 µM
  TGI: 11 µM
[9]
  GI50: 4.61 µM
  LC50: 40.7 µM
  TGI: 16.4 µM
[10]
  GI50: 2.34 µM
  TGI: 6.18 µM
  CC50: 28.5 µM
[11]
  GI50: 2.04 µM
  TGI: 4.97 µM
  CC50: 23.4 µM
[12]
  GI50: 2.96 µM
  TGI: 9.9 µM
  CC50: > 100 µM
NCI-H23
  GI50: 4.31 µM
  TGI: 18.2 µM
  CC50: 50.8 µM
SR
  GI50: 1.93 µM
  TGI: 5.75 µM
  CC50: 40.6 µM
M14
  GI50: 1880 nM
  TGI: 4.08 µM
  CC50: 8.86 µM
[13]
  GI50: 2.24 µM
  TGI: 7.34 µM
  CC50: 31.2 µM
U-251
  GI50: 2.24 µM
  LC50 (50% lethal concentration): 18 µM
  TGI: 5.49 µM
NCI-H322M
  GI50: 5.12 µM
  TGI: 18.6 µM
  CC50: 47 µM
[14]
  GI50: 4.7 µM
  LC50: 43.3 µM
  TGI: 17.5 µM
[15]
  GI50: 5.66 µM
  LC50: 42.5 µM
  TGI: 18.1 µM
MCF7
  GI50: < 10 nM
  TGI: 2.72 µM
  CC50: 14 µM
[16]
  GI50: 2.4 µM
  LC50: 65 µM
  TGI: 6.72 µM
[17]
  GI50: 1.87 µM
  TGI: 5.72 µM
  CC50: 23.7 µM
[18]
  GI50: 7.99 µM
  LC50 (concentration killing 50% of cells): 54.2 µM
  TGI: 22.5 µM
NCI-H226
  GI50: 11.3 µM
  LC50 (50% lethal concentration): 79 µM
  TGI: 29.8 µM

## CCCCCCCCCC(=O)Oc1ccc(/C(=C(/C)c2ccccc2)c2ccc(OCCN3CCCC3)cc2)cc1
[1]
  GI50: 8.16 µM
  LC50: 36.3 µM
  TGI: 17.2 µM
SK-MEL-5
  GI50: 8.13 µM
  TGI: 14.9 µM
  CC50: 27.3 µM
A549
  GI50: 9.35 µM
  LC50: 33.4 µM
  TGI: 17.7 µM
MDA-MB-231
  GI50: 1020 nM
  LC50: 39.9 µM
  TGI: 20.2 µM
[2]
  GI50: 7.36 µM
  TGI: 14.8 µM
  CC50: 29.6 µM
MDA-MB-435
  GI50: 7.47 µM
  TGI: 14.1 µM
  CC50: 26.5 µM
[3]
  GI50: 8.28 µM
  LC50: 30 µM
  TGI: 15.7 µM
T47D
  LC50: 39.9 µM
  TGI: 14.4 µM
[4]
  GI50: 8.22 µM
  TGI: 16.8 µM
  CC50: 34.5 µM
[5]
  GI50: 6.69 µM
  LC50 (concentration killing 50% of cells): 25.6 µM
  TGI: 13.1 µM
[6]
  GI50: 7.93 µM
  LC50 (concentration killing 50% of cells): 28.6 µM
  TGI: 15.1 µM
ACHN
  GI50: 8.16 µM
  LC50 (concentration causing 50% net cell kill): 29.3 µM
  TGI: 15.5 µM
[7]
  TGI: 14.7 µM
  CC50: 29.1 µM
CCRF-CEM
  GI50: 9.51 µM
  TGI: 22.3 µM
  CC50: 50 µM
[8]
  GI50: 8.61 µM
  LC50: 47.7 µM
  TGI: 20.3 µM
[9]
  GI50: 8.86 µM
  LC50: 31.3 µM
  TGI: 16.7 µM
[10]
  GI50: 8.66 µM
  TGI: 17.2 µM
  CC50: 34.3 µM
[11]
  GI50: 9.24 µM
  TGI: 18.7 µM
  CC50: 37.8 µM
[12]
  GI50: 9.55 µM
  TGI: 32.2 µM
  CC50: > 50 µM
NCI-H23
  GI50: 7.74 µM
  TGI: 16.1 µM
  CC50: 33.4 µM
SR
  GI50: 9.08 µM
  TGI: 19 µM
  CC50: 39.7 µM
M14
  TGI: 16.5 µM
  CC50: 32.8 µM
[13]
  GI50: 7.01 µM
  TGI: 15.4 µM
  CC50: 33.8 µM
U-251
  GI50: 8.01 µM
  LC50 (50% lethal concentration): 29.8 µM
  TGI: 15.4 µM
NCI-H322M
  GI50: 8.04 µM
  TGI: 15.7 µM
  CC50: 30.7 µM
[14]
  GI50: 7.39 µM
  LC50: 29.9 µM
  TGI: 14.9 µM
[15]
  GI50: 8.18 µM
  LC50: 31.6 µM
  TGI: 16.1 µM
MCF7
  GI50: < 5000 nM
  TGI: 10.3 µM
  CC50: 28 µM
[16]
  GI50: 9.13 µM
  LC50: 48.5 µM
  TGI: 21 µM
[17]
  GI50: 6.72 µM
  TGI: 14.2 µM
  CC50: 29.8 µM
[18]
  GI50: 8.56 µM
  LC50 (concentration killing 50% of cells): 31.8 µM
  TGI: 16.5 µM
NCI-H226
  GI50: 9.42 µM
  LC50 (50% lethal concentration): 36.4 µM
  TGI: 18.5 µM
